From patent publication US9393221B2, “Methods and compounds for reducing intracellular lipid storage” (THE GENERAL HOSPITAL CORPORATION, priority 2011, dated 2016)
Where a name gives a salt, the structure may show the parent alone.

test system: ATGL-KO iPSCs; experiment: High throughput iPSC chemical screening, Oil Red O (ORO) lipid accumulation; format: cell-based, mouse; details: not given; as to Z-score: test concentration or dose not given here

Molecule | Z-score
CN1CCc2cccc3c2[C@H]1Cc1ccc(O)c(O)c1-3.CN1CCc2cccc3c2[C@H]1Cc1ccc(O)c(O)c1-3.Cl.Cl.O | −0.2622

same assay, conditions: glycolytic switch compounds

Molecule | Rank in normalized ORO score from screen
CC(NCCC(c1ccccc1)c1ccccc1)c1ccccc1 (stereo not shown) [Fendiline hydrochloride, reference compound] | 1
Cc1cc2c(C(C)C)c(O)c(O)c(C=O)c2c(O)c1-c1c(C)cc2c(C(C)C)c(O)c(O)c(C=O)c2c1O [Gossypol] | 8

same assay, conditions: normalized ORO level vs DMSO-treated cells; compound present during 7 days differentiation, 96-well; negative = decrease in lipid accumulation

Molecule | Z-score
CC[C@@H](C(=O)[C@@H](C)[C@@H](O)[C@H](C)CCc1ccc(C)c(O)c1C(=O)O)[C@H]1O[C@](CC)([C@H]2CC[C@](O)(CC)[C@H](C)O2)C[C@@H]1C [Lasalocid sodium salt] | 9.898
C#C[C@]1(O)CC[C@H]2[C@@H]3CCC4=CC(=O)CC[C@@H]4[C@H]3CC[C@@]21C [Norethindrone] | −0.6688
Cn1cnc([N+](=O)[O-])c1Sc1ncnc2nc[nH]c12 [Azathioprine] | 17.2224
C[C@@H]1CC[C@H]2[C@@H](C)C(=O)O[C@@H]3O[C@@]4(C)CC[C@@H]1[C@]32OO4 [Artemisinin] | 4.801
Dihydroergotamine tartrate | −0.7032
CC(NCCC(c1ccccc1)c1ccccc1)c1ccccc1 (stereo not shown) [Fendiline hydrochloride, reference compound] | −2.53
C=C1CC[C@H](O)C/C1=C/C=C1\CCC[C@]2(C)[C@@H]([C@H](C)/C=C/[C@H](C)C(C)C)CC[C@@H]12 [Calciferol] | 0.2582
Cc1cc2c(C(C)C)c(O)c(O)c(C=O)c2c(O)c1-c1c(C)cc2c(C(C)C)c(O)c(O)c(C=O)c2c1O [Gossypol] | −2.0704
COc1cc(N)c(Cl)cc1C(=O)NC1CCN(Cc2ccccc2)CC1 [Clebopride maleate] | −0.108
NCCCC[C@H](N[C@@H](CCc1ccccc1)C(=O)O)C(=O)N1CCC[C@H]1C(=O)O [Lisinopril] | 0.5403
COc1cc([C@@H]2c3cc4c(cc3[C@H](O)[C@H]3COC(=O)[C@H]23)OCO4)cc(OC)c1OC [Podophyllotoxin] | 46.4771
C[C@]12CCC(=O)C=C1CC[C@@H]1[C@@H]2[C@@H](O)C[C@@]2(C)[C@H]1CC[C@]2(O)C(=O)CO [Hydrocortisone base] | −0.2176
CN(C)C(=O)Oc1cc(OC(=O)N(C)C)cc(C(O)CNC(C)(C)C)c1 (stereo not shown) [Bambuterol hydrochloride] | 0.1858
C[C@@]1(O)CCOC(=O)C1 [Mevalonic-D, L acid lactone] | −1.4333
Pyrantel tartrate | −0.1933
O=C1OC(CN2CCOCC2)CN1/N=C/c1ccc([N+](=O)[O-])o1 (stereo not shown) [Furaltadone hydrochloride] | −0.4516
Solanine alpha | −1.7798
Nc1ccc(S(=O)(=O)Nc2nccs2)cc1 [Sulfathiazole] | 0.1226
CO[C@@H]1[C@@H](OC(N)=O)[C@@H](O)[C@H](Oc2ccc3c(O)c(NC(=O)c4ccc(O)c(CC=C(C)C)c4)c(=O)oc3c2C)OC1(C)C [Novobiocin sodium salt] | −1.5591
COC(=O)Nc1nc2ccc(Sc3ccccc3)cc2[nH]1 [Fenbendazole] | 16.3822
COc1c(O[C@@H]2O[C@H](CO)[C@@H](O)[C@H](O)[C@H]2O)cc2c(c1OC)-c1ccc(SC)c(=O)cc1[C@@H](NC(C)=O)CC2 [Thiocolchicoside] | 11.5611
C[C@]12CC[C@H]3C(=CCc4cc(O)ccc43)[C@@H]1CCC2=O [Equilin] | −1.0652
COc1cc2c(cc1OC)-c1cc3ccc(OC)c(OC)c3c[n+]1CC2 [Palmatine chloride] | 6.905
CCN(CC)C(=O)N1CCN(C)CC1 [Diethylcarbamazine citrate] | −1.1872
COc1cc2c(cc1O)[C@@H]1Cc3ccc(OC)c(O)c3CN1CC2 [Scoulerine] | 19.9884
C[C@](N)(Cc1ccc(O)c(O)c1)C(=O)O [Methyldopa (L,−)] | 0.02395
Cn1c(=O)c2[nH]cnc2n(C)c1=O.O [Theophylline monohydrate] | 0.7001
C[C@]12C=CC(=O)C=C1CC[C@@H]1[C@@H]2[C@@H](O)C[C@@]2(C)[C@H]1CC[C@]2(O)C(=O)CO [Prednisolone] | −0.8986
